Data reported in PubChem BioAssay AID1963838 (Molecular Pharmacology Branch, DTP, NCI, 2024).

System: 855422-203-R-J1-PDC complex spheroid viability
Assay: Anticancer human tumor 855422-203-R-J1-PDC patient-derived bladder carcinoma cell line growth inhibition [POLQ]
Conditions: for IC50: curve of first compound; for viability, T/C: stronger effect = lower value
Method in brief: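 Complex spheroid viability model combining PDC tumour cells with endothelial (HUVEC) and MSC stromal cells. Novobiocin, ART-558 or RP6685 were tested singly and in combination with standard and investigational anticancer drugs. Each was titrated in half-log steps from near clinical Cmax, or from 10 microM where Cmax was unknown.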

[1] = second compound 0.0316 µM, first compound 0.0316 µM
[2] = second compound 0.0316 µM, first compound 0.1 µM
[3] = second compound 0.0316 µM, first compound 0.316 µM
[4] = second compound 0.0316 µM, first compound 1 µM
[5] = second compound 0.0316 µM, first compound 3.16 µM
[6] = second compound 0.0316 µM, first compound 10 µM
[7] = second compound 0.1 µM, first compound 0.0316 µM
[8] = second compound 0.1 µM, first compound 0.1 µM
[9] = second compound 0.1 µM, first compound 0.316 µM
[10] = second compound 0.1 µM, first compound 1 µM
[11] = second compound 0.1 µM, first compound 3.16 µM
[12] = second compound 0.1 µM, first compound 10 µM
[13] = second compound 0.316 µM, first compound 0.0316 µM
[14] = second compound 0.316 µM, first compound 0.1 µM
[15] = second compound 0.316 µM, first compound 0.316 µM
[16] = second compound 0.316 µM, first compound 1 µM
[17] = second compound 0.316 µM, first compound 3.16 µM
[18] = second compound 0.316 µM, first compound 10 µM
[19] = second compound 1 µM, first compound 0.0316 µM
[20] = second compound 1 µM, first compound 0.1 µM
[21] = second compound 1 µM, first compound 0.316 µM
[22] = second compound 1 µM, first compound 1 µM
[23] = second compound 1 µM, first compound 3.16 µM
[24] = second compound 1 µM, first compound 10 µM
[25] = second compound 3.16 µM, first compound 0.0316 µM
[26] = second compound 3.16 µM, first compound 0.1 µM
[27] = second compound 3.16 µM, first compound 0.316 µM
[28] = second compound 3.16 µM, first compound 1 µM
[29] = second compound 3.16 µM, first compound 3.16 µM
[30] = second compound 3.16 µM, first compound 10 µM
[31] = second compound 10 µM, first compound 0.0316 µM
[32] = second compound 10 µM, first compound 0.1 µM
[33] = second compound 10 µM, first compound 0.316 µM
[34] = second compound 10 µM, first compound 1 µM
[35] = second compound 10 µM, first compound 3.16 µM
[36] = second compound 10 µM, first compound 10 µM
[37] = second compound 0.0316 µM, first compound 0.00316 µM
[38] = second compound 0.0316 µM, first compound 0.01 µM
[39] = second compound 0.1 µM, first compound 0.00316 µM
[40] = second compound 0.1 µM, first compound 0.01 µM
[41] = second compound 0.316 µM, first compound 0.00316 µM
[42] = second compound 0.316 µM, first compound 0.01 µM
[43] = second compound 1 µM, first compound 0.00316 µM
[44] = second compound 1 µM, first compound 0.01 µM
[45] = second compound 3.16 µM, first compound 0.00316 µM
[46] = second compound 3.16 µM, first compound 0.01 µM
[47] = second compound 10 µM, first compound 0.00316 µM
[48] = second compound 10 µM, first compound 0.01 µM
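Also: spheroids exposed to compounds for seven days before readout.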

`CC1COCCN1c1cc(-c2ccnn2C)c2ccnc(-c3ccn[nH]3)c2n1` (stereo not drawn) + Nc1ccc(C#CCN(C(=O)Cc2ncc(C(F)(F)F)cc2C(F)(F)F)c2ccc(F)cc2)nn1 showed an IC50 (second compound 0.0316 µM) of 255 nM, an IC50 (second compound 0.1 µM) of 275 nM and an IC50 (second compound 0.316 µM) of 253 nM. For the same compound, the IC50 (second compound 1 µM) was 203 nM, the IC50 (second compound 3.16 µM) was 234 nM and the IC50 (second compound 10 µM) was 202 nM. The viability, T/C [1] was 124%, the viability, T/C [2] was 124% and the viability, T/C [3] was 33.2%. For the same compound, the viability, T/C [4] was 16%, the viability, T/C [5] was 13.6% and the viability, T/C [6] was 12.8%. It also gave a viability, T/C [7] of 118%, a viability, T/C [8] of 159% and a viability, T/C [9] of 37.7%. It also gave a viability, T/C [10] of 17.4%, a viability, T/C [11] of 11.8% and a viability, T/C [12] of 11.9%. It also gave a viability, T/C [13] of 128%, a viability, T/C [14] of 140% and a viability, T/C [15] of 30%. It also gave a viability, T/C [16] of 13.2%, a viability, T/C [17] of 11.3% and a viability, T/C [18] of 10.5%. The viability, T/C [19] was 119%, the viability, T/C [20] was 92.5% and the viability, T/C [21] was 23.3%. The viability, T/C [22] was 15.3%, the viability, T/C [23] was 12.6% and the viability, T/C [24] was 8.88%. For the same compound, the viability, T/C [25] was 102%, the viability, T/C [26] was 128% and the viability, T/C [27] was 27.1%. The viability, T/C [28] was 15.1%, the viability, T/C [29] was 10.3% and the viability, T/C [30] was 8.61%. The viability, T/C [31] was 119%, the viability, T/C [32] was 88.8% and the viability, T/C [33] was 25.2%. The viability, T/C [34] was 12.9%, the viability, T/C [35] was 11.1% and the viability, T/C [36] was 10.7%.
With `COc1ccc([C@@H](O)c2cc(-c3ncnc4cc(N5CCOCC5)ccc34)c(F)cc2Cl)nn1` + Nc1ccc(C#CCN(C(=O)Cc2ncc(C(F)(F)F)cc2C(F)(F)F)c2ccc(F)cc2)nn1 the IC50 (second compound 0.0316 µM) was greater than 10000 nM, the IC50 (second compound 0.1 µM) was greater than 10000 nM and the IC50 (second compound 0.316 µM) was greater than 10000 nM. It also gave an IC50 (second compound 1 µM) greater than 10000 nM, an IC50 (second compound 3.16 µM) greater than 10000 nM and an IC50 (second compound 10 µM) of 9830 nM. The viability, T/C [1] was 110%, the viability, T/C [2] was 105% and the viability, T/C [3] was 89%. It also gave a viability, T/C [4] of 94.5%, a viability, T/C [5] of 106% and a viability, T/C [6] of 58.4%. It also gave a viability, T/C [7] of 91.8%, a viability, T/C [8] of 104% and a viability, T/C [9] of 104%. The viability, T/C [10] was 98.1%, the viability, T/C [11] was 106% and the viability, T/C [12] was 59.4%. For the same compound, the viability, T/C [13] was 115%, the viability, T/C [14] was 126% and the viability, T/C [15] was 86.4%. It also gave a viability, T/C [16] of 98.5%, a viability, T/C [17] of 110% and a viability, T/C [18] of 54.3%. It also gave a viability, T/C [19] of 99.8%, a viability, T/C [20] of 96.8% and a viability, T/C [21] of 93.4%. The viability, T/C [22] was 104%, the viability, T/C [23] was 111% and the viability, T/C [24] was 51%. It also gave a viability, T/C [25] of 94.6%, a viability, T/C [26] of 105% and a viability, T/C [27] of 87.5%. For the same compound, the viability, T/C [28] was 94.2%, the viability, T/C [29] was 90.7% and the viability, T/C [30] was 57.4%. For the same compound, the viability, T/C [31] was 92.3%, the viability, T/C [32] was 92.5% and the viability, T/C [33] was 98.3%. For the same compound, the viability, T/C [34] was 86.2%, the viability, T/C [35] was 98.6% and the viability, T/C [36] was 49.3%.
For `COc1cccc(OCCCN)c1-c1cc(Nc2cnc(C#N)cn2)n[nH]1` + Nc1ccc(C#CCN(C(=O)Cc2ncc(C(F)(F)F)cc2C(F)(F)F)c2ccc(F)cc2)nn1, the IC50 (second compound 0.0316 µM) was 27.7 nM, the IC50 (second compound 0.1 µM) was 31.9 nM and the IC50 (second compound 0.316 µM) was 31.5 nM. It also gave an IC50 (second compound 1 µM) of 25.2 nM, an IC50 (second compound 3.16 µM) of 24.1 nM and an IC50 (second compound 10 µM) of 24 nM. The viability, T/C [37] was 111%, the viability, T/C [38] was 197% and the viability, T/C [1] was 36.6%. It also gave a viability, T/C [2] of 11.9%, a viability, T/C [3] of 7.2% and a viability, T/C [4] of 6.13%. For the same compound, the viability, T/C [39] was 106%, the viability, T/C [40] was 196% and the viability, T/C [7] was 50.3%. It also gave a viability, T/C [8] of 10.7%, a viability, T/C [9] of 6.14% and a viability, T/C [10] of 5.3%. It also gave a viability, T/C [41] of 113%, a viability, T/C [42] of 176% and a viability, T/C [13] of 49.8%. The viability, T/C [14] was 11.1%, the viability, T/C [15] was 7.07% and the viability, T/C [16] was 6.94%. It also gave a viability, T/C [43] of 105%, a viability, T/C [44] of 148% and a viability, T/C [19] of 31.3%. The viability, T/C [20] was 9.99%, the viability, T/C [21] was 7.86% and the viability, T/C [22] was 7.5%. The viability, T/C [45] was 107%, the viability, T/C [46] was 178% and the viability, T/C [25] was 21.6%. The viability, T/C [26] was 15.9%, the viability, T/C [27] was 7.71% and the viability, T/C [28] was 6.25%. For the same compound, the viability, T/C [47] was 100%, the viability, T/C [48] was 161% and the viability, T/C [31] was 24.6%. It also gave a viability, T/C [32] of 8%, a viability, T/C [33] of 9.72% and a viability, T/C [34] of 7.4%.
For `Cn1ncnc1[C@H]1c2n[nH]c(=O)c3cc(F)cc(c23)N[C@@H]1c1ccc(F)cc1` + Nc1ccc(C#CCN(C(=O)Cc2ncc(C(F)(F)F)cc2C(F)(F)F)c2ccc(F)cc2)nn1, the IC50 (second compound 0.0316 µM) was greater than 100 nM, the IC50 (second compound 0.1 µM) was greater than 100 nM and the IC50 (second compound 0.316 µM) was greater than 100 nM. For the same compound, the IC50 (second compound 1 µM) was greater than 100 nM, the IC50 (second compound 3.16 µM) was greater than 100 nM and the IC50 (second compound 10 µM) was greater than 100 nM. The viability, T/C (second compound 0.0316 µM, first compound 0.000316 µM) was 96.1%, the viability, T/C (second compound 0.0316 µM, first compound 0.001 µM) was 125% and the viability, T/C [37] was 96%. The viability, T/C [38] was 82%, the viability, T/C [1] was 110% and the viability, T/C [2] was 132%. The viability, T/C (second compound 0.1 µM, first compound 0.000316 µM) was 88.6%, the viability, T/C (second compound 0.1 µM, first compound 0.001 µM) was 157% and the viability, T/C [39] was 92%. The viability, T/C [40] was 104%, the viability, T/C [7] was 119% and the viability, T/C [8] was 147%. The viability, T/C (second compound 0.316 µM, first compound 0.000316 µM) was 91.7%, the viability, T/C (second compound 0.316 µM, first compound 0.001 µM) was 154% and the viability, T/C [41] was 91.4%. For the same compound, the viability, T/C [42] was 106%, the viability, T/C [13] was 96.2% and the viability, T/C [14] was 181%. It also gave a viability, T/C (second compound 1 µM, first compound 0.000316 µM) of 98.8%, a viability, T/C (second compound 1 µM, first compound 0.001 µM) of 154% and a viability, T/C [43] of 96%. The viability, T/C [44] was 93.2%, the viability, T/C [19] was 115% and the viability, T/C [20] was 153%. The viability, T/C (second compound 3.16 µM, first compound 0.000316 µM) was 92%, the viability, T/C (second compound 3.16 µM, first compound 0.001 µM) was 135% and the viability, T/C [45] was 95.7%. For the same compound, the viability, T/C [46] was 106%, the viability, T/C [25] was 134% and the viability, T/C [26] was 122%. It also gave a viability, T/C (second compound 10 µM, first compound 0.000316 µM) of 93.2%, a viability, T/C (second compound 10 µM, first compound 0.001 µM) of 110% and a viability, T/C [47] of 88.3%. It also gave a viability, T/C [48] of 100%, a viability, T/C [31] of 102% and a viability, T/C [32] of 132%.
